These results are taken from patent publication US11236102B2, “Oxabicycloheptane prodrugs” (Lixte Biotechnology, Inc., priority 2015, dated 2022).

“Also recorded” adds a separate entry of the source.

One may read the Cmax as the peak of the concentration-time curve. The AUC is concentration integrated over time. A high value points to high exposure. The IC50 is the concentration needed to halve the response being measured. A lower IC50 goes with higher potency.

A short description of data set [1]: Whole blood stability (half-life) and metabolite formation. It is filed as in vitro ADME, rat, dog, monkey and human. Particulars: cross species. The procedure:
The stability (whole blood, liver S9, SGF, SIF, and PBS buffer) and MDCK-MDR1 monolayer permeability of LB100, LB-100 Carbonate and LB-100 POM were evaluated.
Samples were analyzed by LC-MS/MS using a SCIEX QTrap 5500 mass spectrometer coupled with an Agilent 1290 HPLC Infinity series, a CTC PAL chilled autosampler, all controlled by Analyst software. After separation on a C18 reverse phase HPLC column (Acquity UPLC HSS T3, 1.8, 2.1×50 mm) using an acetonitrile-water gradient system, peaks were analyzed by mass spectrometry (MS) using […] ionization in MRM mode.
Whole Blood Stability: Experimental Conditions Experimental Procedure: The stock solution was first diluted in acetonitrile at a concentration that is 100× of the desired final concentration. It was incubated in duplicate with whole blood at 37° C. At indicated times, an aliquot was removed from each experimental and control reaction and mixed with three volumes of ice-cold Stop Solution (methanol containing propranolol as internal standard). Stopped reactions were incubated at least ten minutes at −20° C. The samples were centrifuged to remove precipitated protein, and the supernatants were analyzed by LC-MS/MS to quantitate the remaining parent and the formation of metabolites.
Data were converted to % remaining by dividing by the time zero concentration value. Data were fit to a first-order decay model to determine half-life.

Data set [2] is described as follows: Pharmacokinetic study of 153 (iv, po) in SD rats: 153 and endothal in plasma, liver, brain. It is filed as in vivo, SD rats. Particulars: for Endothal plasma concentration: individual rats. The procedure:
The blood, liver and brain tissue samples were collected at predetermined times from rats. […] Compound were diluted shortly before use in 4% sodium bicarbonate for sterile injection (this is the standard pediatric solution of NaHCO3 with a pH of about 8.5).
Compound 153 was freshly prepared by diluting the drugs shortly before use in 4% sodium bicarbonate for sterile injection (this is the standard pediatric solution of NaHCO3 with a pH of about 8.5). The final concentrations of 153 solutions were 0.25 mg/mL. The 153 solutions were administered via iv or po route at dose volume of 5 ml/kg according to the latest body weight. Compound 157 was freshly prepared by diluting the drugs shortly before use in 4% sodium bicarbonate for sterile injection (this is the standard pediatric solution of NaHCO3 with a pH of about 8.5). The final concentrations of […] solutions were 0.3 mg/mL. The 157 solutions were administered via iv or po route at dose volume of 5 ml/kg according to the latest body weight.
Twelve (12) female SD rats per group were dosed by iv with 153 or 157. The rats were fasted overnight prior to dosing, with free access to water. Foods were withheld for 2 hours post-dose. Blood, liver and brain tissue samples in two animals each group were collected at each time point, within 10% of the scheduled time for each time point. Two extra animals were used for analytic method development.
Blood (>0.3 mL) were collected via aorta abdominalis in anaesthetic animals into tubes containing heparin at 15 min, 1, 2, 6, 10 and 24 hours after iv administration. Liver and brain tissues were collected immediately after animal death. The liver and brain tissues were excised and rinsed with cold saline to avoid blood residual. Upon collection, each sample was placed on ice and the blood samples were subsequently centrifuged (4° C., 11000 rpm, 5 min) to separate plasma.
The obtained plasma, liver and brain tissue samples were stored at −70° C. until LC-MS/MS analysis.
Two (2) female SD rats per group were dosed by po with 153 or 157. The rats were fasted overnight prior to dosing, with free access to water. Foods were withheld for 2 hours post-dose. Blood samples (>0.3 mL) were collected via aorta abdominalis in anaesthetic animals into tubes containing heparin at 30 min, 1, 2, 6, 10 and 24 hours after po administration.
To each sample, 20 μL IS-D (for blank samples, 20 μL acetonitrile:water (1:1) was added) and 300 μl acetonitrile was added. The sample mixture was vortexed for approximately 3 min. After centrifugation at 10000 rpm for 5 min at 4° C., 100 μL of the upper layer was transferred to a new tube and added 200 μL 0.4% formic acid in water (pH 6.0). The mixture was vortexed for approximately 3 min before injected onto the LC/MS/MS system for analysis.
On the day of the assay, the frozen liver and brain samples were thawed unassisted at room temperature. An about 200 mg weighed sample of each thawed tissue was placed into a plastic tube with water (0.6 mL) to facilitate homogenization. Tissue processing was conducted using a homogenizer for approximately 1 min, 200 μl homogenate was transferred into a fresh Eppendorf tube. To each tube, 50 μL IS-D was added and mixed. Then 600 ul acetonitrile was added and the sample mixture was vortexed for approximately 3 min. After centrifugation at 10000 rpm for 5 min at 4° C., 400 μL of the upper layer was transferred to a new tube and evaporate the supernatant to dryness at 35° C. Reconstitute the residue with 200 μL of 0.4% formic acid in water (pH6.0), and vortex for 3 min, submit for LC-MS/MS analysis.
Frozen unknown plasma samples were completely thawed at room temperature and vortexed thoroughly. With a pipette, 50 μL of plasma was transferred into a 2.0 mL Eppendorf tube. 50 μL of 0.1N HCl and 800 μL ethyl acetate were added into each sample. The sample mixture was vortexed for approximately 3 min.

The target of another data set is protein phosphatase PP2A (Homo sapiens, UniProt P67775). The data set is described as follows: Inhibition of purified protein phosphatase PP2A. It is filed as biochemical. The procedure: In vivo, endothall has a longer half-life that LB-100 on the order of 6 hours compared to about 1 hour or less for LB-100. […] A half-life of several hours of activity is clinically more desirable that much shorter durations. Modification of substituents of LB-100 provide opportunities to further enhance the clinical usefulness of LB-100 by for example improving oral absorption, uptake into specific organs bearing the disease process, for example, the brain, and further modifying the rate of conversion for effective delivery of parent compound and/or endothall to tissue.
protein phosphatase PP2A, sequence (P67775 whole entry): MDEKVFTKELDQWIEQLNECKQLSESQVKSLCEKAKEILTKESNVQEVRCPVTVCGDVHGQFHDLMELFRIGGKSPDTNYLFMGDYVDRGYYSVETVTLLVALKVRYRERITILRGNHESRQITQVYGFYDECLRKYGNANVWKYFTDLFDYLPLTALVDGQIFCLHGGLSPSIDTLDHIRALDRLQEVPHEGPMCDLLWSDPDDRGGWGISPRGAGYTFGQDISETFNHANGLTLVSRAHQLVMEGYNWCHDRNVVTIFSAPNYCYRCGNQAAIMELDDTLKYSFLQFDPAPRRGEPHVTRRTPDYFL

In the case of `COC(=O)C1C2CCC(O2)C1C(=O)N1CCN(C)CC1` (stereo not drawn) [Compound 151], the “metabolite formation in whole blood half-life study” value in data set [1] was “No metabolites were detected”.
`O=C(O)C1C2CCC(O2)C1C(=O)O` (stereo not drawn) [Endothal, 7-oxabicyclo[2.2.1]heptane-2,3-dicarboxylic acid]: the “detectability in brain samples” value in data set [2] (endothal after single iv 153 at 1.25 mg/kg, 1.25 mg/kg) is listed as “not detectable; also recorded: undetectable”. In addition, the Cmax in data set [2] (female, SD, rat, in vivo, po, 1.25 mg/kg) worked out at 46.9 ng/mL. The AUC in data set [2] (female, Sprague-Dawley, rat, in vivo, iv, 1.25 mg/kg) was found to be 378 ng·h/mL. For the same molecule, the Endothal plasma concentration result in data set [2] (iv administration of 153, 10 hr) is on record as “BLQ”; in data set [2] (iv administration of 153, 24 hr) it was “BLQ”; in data set [2] (po administration of 153, 10 hr), “BLQ”. The molecule further gave an AUClast in liver in data set [2] (rat, in vivo, iv, 1.25 mg/kg) of 10820 ng·h/g. In addition, the IC50 against protein phosphatase PP2A was ~90 nM.
